Test results reported in patent US20240000872A1, “NOVEL BACTERIOPHAGE THAT LYSES ACINETOBACTER GENUS BACTERIA HAVING RESISTANCE TO ANTIBIOTICS” (priority 2020, published 2024).

Test system: Acinetobacter baumannii strains
Assay: Antibiotic susceptibility test (CLSI disk diffusion test method, read per CLSI 2016); on antibiotic susceptibility S/I/R: key: ‘S’ means susceptible; ‘I’ means intermediate; ‘R’ means resistant; on susceptibility category (S/I/R): key: ‘S’ means susceptible; ‘I’ means intermediate; ‘R’ means resistant
Format: cell-based
Design: antibiotic susceptibility test value / susceptibility test value (number given before S/I/R) / antibiotic susceptibility value: unit not given here

## piperacillin-tazobactam
Host strain YMC16/01/R353
  antibiotic susceptibility value: 128
  susceptibility category (S/I/R): R
  susceptibility test value (number given before S/I/R): 128
Host strain YMC16/01/R380
  antibiotic susceptibility S/I/R: R
  antibiotic susceptibility value: 128
  susceptibility category (S/I/R): R
  susceptibility test value (number given before S/I/R): 128
Host strain YMC16/01/R397
  antibiotic susceptibility S/I/R: R
  antibiotic susceptibility value: 128
  susceptibility category (S/I/R): R
  susceptibility test value (number given before S/I/R): 128
Host strain YMC16/01/R405
  antibiotic susceptibility S/I/R: R
  antibiotic susceptibility value: 128
  susceptibility category (S/I/R): R
  susceptibility test value (number given before S/I/R): 128
Host strain YMC16/03/R4461
  antibiotic susceptibility S/I/R: R
  antibiotic susceptibility value: 128
  susceptibility category (S/I/R): R
  susceptibility test value (number given before S/I/R): 128
Host strain YMC16/05/R2210
  antibiotic susceptibility S/I/R: R
  antibiotic susceptibility value: 128
  susceptibility category (S/I/R): R
  susceptibility test value (number given before S/I/R): 128
Host strain YMC16/07/R2512
  antibiotic susceptibility S/I/R: R
  antibiotic susceptibility value: 128
  susceptibility category (S/I/R): R
  susceptibility test value (number given before S/I/R): 128
Host strain YMC16/09/R2471
  antibiotic susceptibility S/I/R: R
  antibiotic susceptibility value: 128
  susceptibility category (S/I/R): R
  susceptibility test value (number given before S/I/R): 128
Host strain YMC16/10/R2537
  antibiotic susceptibility S/I/R: R
  antibiotic susceptibility value: 128
  susceptibility category (S/I/R): R
  susceptibility test value (number given before S/I/R): 128
Host strain YMC16/12/B11422
  antibiotic susceptibility S/I/R: R
  antibiotic susceptibility value: 128
  susceptibility category (S/I/R): R
  susceptibility test value (number given before S/I/R): 128
Host strain YMC16/12/B11449
  antibiotic susceptibility S/I/R: R
  antibiotic susceptibility value: 128
  susceptibility category (S/I/R): R
  susceptibility test value (number given before S/I/R): 128
Host strain YMC16/12/B13325
  antibiotic susceptibility S/I/R: R
  antibiotic susceptibility value: 128
  susceptibility category (S/I/R): R
  susceptibility test value (number given before S/I/R): 128
Host strain YMC16/12/P503
  antibiotic susceptibility S/I/R: R
  antibiotic susceptibility value: 128
  susceptibility category (S/I/R): R
  susceptibility test value (number given before S/I/R): 128
Host strain YMC16/12/R4637
  antibiotic susceptibility S/I/R: R
  antibiotic susceptibility value: 128
  susceptibility category (S/I/R): R
  susceptibility test value (number given before S/I/R): 128
Host strain YMC17/01/B8053
  antibiotic susceptibility S/I/R: R
  antibiotic susceptibility value: 128
  susceptibility category (S/I/R): R
  susceptibility test value (number given before S/I/R): 128
Host strain YMC17/01/B10087
  antibiotic susceptibility S/I/R: R
  antibiotic susceptibility value: 128
  susceptibility category (S/I/R): R
  susceptibility test value (number given before S/I/R): 128
Host strain YMC17/01/B12075
  antibiotic susceptibility S/I/R: R
  antibiotic susceptibility value: 128
  susceptibility category (S/I/R): R
  susceptibility test value (number given before S/I/R): 128
Host strain YMC17/01/B13454
  antibiotic susceptibility S/I/R: R
  antibiotic susceptibility value: 128
  susceptibility category (S/I/R): R
  susceptibility test value (number given before S/I/R): 128
Host strain YMC17/01/P518
  antibiotic susceptibility S/I/R: R
  antibiotic susceptibility value: 128
  susceptibility category (S/I/R): R
  susceptibility test value (number given before S/I/R): 128
Host strain YMC17/01/R2812
  antibiotic susceptibility S/I/R: R
  antibiotic susceptibility value: 128
  susceptibility category (S/I/R): R
  susceptibility test value (number given before S/I/R): 128
Host strain YMC17/02/B14
  antibiotic susceptibility S/I/R: R
  antibiotic susceptibility value: 128
  susceptibility category (S/I/R): R
  susceptibility test value (number given before S/I/R): 128
Host strain YMC17/02/B87
  antibiotic susceptibility S/I/R: R
  antibiotic susceptibility value: 128
  susceptibility category (S/I/R): R
  susceptibility test value (number given before S/I/R): 128
Host strain YMC17/02/B721
  antibiotic susceptibility S/I/R: R
  antibiotic susceptibility value: 128
  susceptibility category (S/I/R): R
  susceptibility test value (number given before S/I/R): 128
Host strain YMC17/02/B4039
  antibiotic susceptibility S/I/R: R
  antibiotic susceptibility value: 128
  susceptibility category (S/I/R): R
  susceptibility test value (number given before S/I/R): 128
Host strain YMC17/02/B4520
  antibiotic susceptibility S/I/R: R
  antibiotic susceptibility value: 128
  susceptibility category (S/I/R): R
  susceptibility test value (number given before S/I/R): 128
Host strain YMC17/02/B4864
  antibiotic susceptibility S/I/R: S
  antibiotic susceptibility value: 4
  susceptibility category (S/I/R): S
  susceptibility test value (number given before S/I/R): 4
Host strain YMC17/02/B8414
  antibiotic susceptibility S/I/R: R
  antibiotic susceptibility value: 128
  susceptibility category (S/I/R): R
  susceptibility test value (number given before S/I/R): 128
Host strain YMC17/02/P523
  antibiotic susceptibility S/I/R: R
  antibiotic susceptibility value: 128
  susceptibility category (S/I/R): R
  susceptibility test value (number given before S/I/R): 128
Host strain YMC17/02/R541
  antibiotic susceptibility S/I/R: R
  antibiotic susceptibility value: 128
  susceptibility category (S/I/R): R
  susceptibility test value (number given before S/I/R): 128
Host strain YMC17/02/R2392
  antibiotic susceptibility S/I/R: R
  antibiotic susceptibility value: 128
  susceptibility category (S/I/R): R
  susceptibility test value (number given before S/I/R): 128
Host strain YMC17/03/B4730
  antibiotic susceptibility S/I/R: R
  antibiotic susceptibility value: 128
  susceptibility category (S/I/R): R
  susceptibility test value (number given before S/I/R): 128
Host strain YMC17/03/B5000
  antibiotic susceptibility S/I/R: R
  antibiotic susceptibility value: 128
  susceptibility category (S/I/R): R
  susceptibility test value (number given before S/I/R): 128
Host strain YMC17/03/P971
  antibiotic susceptibility S/I/R: R
  antibiotic susceptibility value: 128
  susceptibility category (S/I/R): R
  susceptibility test value (number given before S/I/R): 128
Host strain YMC17/03/R348
  antibiotic susceptibility S/I/R: R
  antibiotic susceptibility value: 128
  susceptibility category (S/I/R): R
  susceptibility test value (number given before S/I/R): 128
Host strain YMC17/03/R585
  antibiotic susceptibility S/I/R: R
  antibiotic susceptibility value: 128
  susceptibility category (S/I/R): R
  susceptibility test value (number given before S/I/R): 128
Host strain YMC17/03/R1888
  antibiotic susceptibility S/I/R: R
  antibiotic susceptibility value: 128
  susceptibility category (S/I/R): R
  susceptibility test value (number given before S/I/R): 128
Host strain YMC17/03/R3279
  antibiotic susceptibility S/I/R: R
  antibiotic susceptibility value: 128
  susceptibility category (S/I/R): R
  susceptibility test value (number given before S/I/R): 128
Host strain YMC17/03/R4077
  antibiotic susceptibility S/I/R: R
  antibiotic susceptibility value: 128
  susceptibility category (S/I/R): R
  susceptibility test value (number given before S/I/R): 128
Host strain YMC17/03/R4607
  antibiotic susceptibility S/I/R: R
  antibiotic susceptibility value: 128
  susceptibility category (S/I/R): R
  susceptibility test value (number given before S/I/R): 128
Host strain YMC17/04/R488
  antibiotic susceptibility S/I/R: R
  antibiotic susceptibility value: 128
  susceptibility category (S/I/R): R
  susceptibility test value (number given before S/I/R): 128
Host strain YMC17/04/R640
  antibiotic susceptibility S/I/R: R
  antibiotic susceptibility value: 128
  susceptibility category (S/I/R): R
  susceptibility test value (number given before S/I/R): 128
Host strain YMC/17/05/R1095
  antibiotic susceptibility S/I/R: R
  antibiotic susceptibility value: 128
  susceptibility category (S/I/R): R
  susceptibility test value (number given before S/I/R): 128
